{"source": "patent US20220218714A1", "about": "“METHOD OF TREATING CANCER” (Epizyme, Inc., priority 2013, published 2022)", "key": {"[1]": {"test_system": "H3K27me3 in HS-SY-II cells", "assay": "H3K27 methylation alterations, ELISA of extracted histones", "type": "cell-based, human", "conditions": "96 hours treatment", "method": "(§1) HS-SY-II and SW982 cells were treated with either DMSO or Compound A starting at 40 nmol/L and decreasing in fourfold dilutions for 96 hours. Cells were washed by ice cold PBS, harvested by cell scraper, and lysed with 100 μL of nuclear extraction buffer (10 mM Tris-HCl, 10 mM MgCl2, 25 mM KCl, 1% Triton X-100, 8.6% Sucrose, plus × Halt Protease inhibitor cocktail (1861281, Thermo Scientific). Nuclei were collected by centrifugation at 600 g for 5 minutes at 4° C. and washed once with ice cold PBS. Supernatant was removed and histones extracted for one hour with 100 μL of 0.4 N cold sulfuric acid. Extracts were clarified by centrifugation at 10,000 g for 10 minutes at 4° C. and transferred to a fresh microcentrifuge tube containing 1 mL of ice cold acetone. Histones were precipitated at −20° C. for overnight, pelleted by centrifugation at 10,000 g for 10 minutes and resuspended in 100 μl of water. Histones were quantified using the BCA protein assay (23225, Pierce). The diluted histones were coated on Immulon 4HBX plates (3855, Thermo Scientific) overnight and ELISA was performed. […] Subsequently, the developed colors in the wells were measured using a plate spectrophotometer (SpectraMax 250, Molecular Devices) at 450 nm (reference wavelength 650 nm).\n(§2) The range of ICso values (two independent experiments), shown in FIG. 6B, were determined by GraphPad Prism (GraphPad Software)."}, "[2]": {"test_system": "H3K27me3 in SW982 cells", "assay": "H3K27 methylation alterations, ELISA of extracted histones", "type": "cell-based, human", "conditions": "96 hours treatment", "method": "as §1, §2"}, "[3]": {"test_system": "H3K27me3 in HS-SY-II xenograft", "assay": "H3K27me3 ELISA of HS-SY-II xenograft tumors harvested on Day 28", "type": "in vivo, athymic nude mice", "conditions": "Day 28, 3 h after the last dose; second study", "method": "FIGS. 10A to 10C show mean in vivo tumor volumes for athymic nude mice bearing HS-SY-II xenografts. In a first study, mice were dosed with either vehicle (oral for 28 days or iv on Day 1 and Day 22), Compound A (oral: 125 mg/kg, 250 mg/kg, or 500 mg/kg for 28 days), or Doxorubicin (iv: 10 mg/kg, Day 1 and Day 22); tumor volumes were measured twice a week (FIGS. 10A and 10B). In a second study, mice were dosed with either vehicle (oral for 28 days), Compound A (oral: 250 mg/kg or 500 mg/kg for 28 days), Doxorubicin (iv: 10 mg/kg on Day 1 and Day 22), or a combination of Doxorubicin (iv: 10 mg/kg on Day 1 and Day 22) and Compound A (oral: 250 mg/kg for 28 days) (FIG. 10C). Tumors from animals of the second study were harvested on Day 28 (3 h after the last dose) and subjected to H3K27me3 analysis by ELISA (FIG. 10D) or IHC for the proliferation marker Ki67 (FIG. 10E).\nFor FIG. 10D, tumors were snap-frozen in liquid nitrogen. […] Histones were quantified using the BCA protein assay (23225, Pierce). […] Subsequently, the developed colors in the wells were measured using a plate spectrophotometer (SpectraMax 250, Molecular Devices) at 450 nm (reference wavelength 650 nm). The H3K27me3 levels were adjusted to total histone H3, and expressed as fold changes to vehicle control. […] Histones were extracted and quantified, and the levels of H3K27me3 were analyzed as described above. […]"}}}
{"smiles": "CCN(c1cc(-c2ccc(CN3CCOCC3)cc2)cc(C(=O)NCc2c(C)cc(C)[nH]c2=O)c1C)C1CCOCC1", "note": "[Compound A]", "values": [{"measurement": "ratio of H3K27me3/total H3 (ratio to control)", "setting": "[1]", "result": "decreased"}, {"measurement": "ratio of H3K27me3/total H3 (ratio to control)", "setting": "[2]", "result": "decreased"}, {"measurement": "H3K27me3 levels in tumors (fold change to vehicle control)", "setting": "[3]", "result": "significantly reduced"}]}
